The target in one experiment is T1, human cyclin D1-CDK4 (Homo sapiens, UniProt P11802).
T1 construct: GST (N); made in house; host or cells: High Five insect cells (baculovirus)
In words: CDK4 HTRF kinase assay (Ki measurement). Particulars: Rb substrate, ATP at 3x Km, Ki=IC50/(1+S/Km). Format: biochemical. The source says: (§1) Using recombinant human cyclin B-CDK1, human cyclin E-CDK2 or human cyclin D1-CDK4 complexes. GST-cyclinE (GST-cycE), CDK2, GST-cyclinB (GST-cycB), CDK1, GST-CDK4 and cyclin D1 (cycD1) cDNA clones in baculovirus vectors were provided by Dr. W. Harper at the Baylor College of Medicine, Houston, Tex. Proteins were co-expressed in High Five™ insect cells and the complex was purified on glutathione Sepharose resin (Pharmacia, Piscataway, N.J.) as previously described (Harper, J. W. et al. Cell 1993, 75, 805-816). A 6×-Histidine tagged truncated form of retinoblastoma (Rb) protein (amino acid 386-928) was used as the substrate for the cycD1-CDK4, cycB-CDK1 and the cycE-CDK2 assays (the expression plasmid was provided by Dr. Veronica Sullivan, Department of Molecular Virology, Roche Research Centre, Welwyn Garden City, United Kingdom). The Rb protein is a natural substrate for phosphorylation by CDK4, CDK2 and CDK1 (see Herwig and Strauss Eur. J. Biochem. Vol. 246 (1997) pp.581-601 and the references cited therein).
(§2) The expression of the 62Kd protein was under the control of an IPTG inducible promoter in an M15 E. coli strain. […] Purified Rb fusion protein stocks were quantitated for protein concentration, aliquoted, and stored at −70° C.
(§3) Using the protein constructs described above, CDK1, CDK2, and CDK4 HTRF assays were set up. These were done in 96-well format and read in 384-well plate format. […]
In the CDK4 assay, test compounds were diluted to 3× their final concentrations in 25 mM Hepes, pH 7.0, 6.25 mM MgCl2, 1.5 mM DTT, 135 μM ATP. […] The plates were read using either ViewLux or Victor V readers (PerkinElmer Life Sciences) using an excitation wavelength of 340 nm and dual emission wavelengths of 615 nm and 665 nm. […] For ATP competitive inhibitors, the Ki values were calculated according to the following equation: Ki=IC50/(1+S/Km) where S refers to the substrate concentration (ATP) and Km refers to the Michaelis-Menten constant for the ATP.
(TR-FRET usually uses a lanthanide donor and a delayed reading to cut background.)

For another experiment, the target named is T2, human cyclin E-CDK2 (Homo sapiens, UniProt P24941).
T2 construct: made in house; host or cells: High Five insect cells (baculovirus)
In words: CDK2 HTRF kinase assay (Ki measurement). Format: biochemical. As to conditions: Rb substrate, ATP at 3x Km, Ki=IC50/(1+S/Km).
Source text: as §1, §2, §3
In the CDK4 assay, test compounds were diluted to 3× their final concentrations in 25 mM Hepes, pH 7.0, 6.25 mM MgCl2, 1.5 mM DTT, 135 μM ATP. […] The plates were read using either ViewLux or Victor V readers (PerkinElmer Life Sciences) using an excitation wavelength of 340 nm and dual emission wavelengths of 615 nm and 665 nm. […] For ATP competitive inhibitors, the Ki values were calculated according to the following equation: Ki=IC50/(1+S/Km) where S refers to the substrate concentration (ATP) and Km refers to the Michaelis-Menten constant for the ATP. […]

For the next experiment, the system named is HCT116 cell line. In words: Tetrazolium dye proliferation assay (MTT assay). Particulars: HCT-116; human colon tumor cell line HCT116, MTT assay. The class given is cell-based. How it is done:
Cell Based Assays (Tetrazolium dye proliferation assay)(“MTT Assay”)
Proliferation was evaluated by the tetrazolium dye assay according to the procedure of Denizot and Lang (Denizot, F. and Lang, R. J Immunol Methods 1986, 89, 271-277). The cell line used was HCT116, a colorectal carcinoma cell line obtained from the American Type Cell Culture Collection (ATCC; Rockville, Md.). The cells were grown in McCoy's 5A medium supplemented with 10% FCS and L-glutamine.
Cells were plated at the appropriate seeding density to give logarithmic growth over the course of the assay in a 96-well tissue culture plate. Plates were incubated overnight at 37° C. in a humidified incubator with 5% CO2. The next day, test compounds were serially diluted to four times the final concentration in the appropriate medium containing 1.2% DMSO. One-fourth final volume of each dilution was added in duplicate to the plates containing cells. The same volume of 1.2% DMSO in medium was added to a row of “control wells” such that the final concentration of DMSO in each well was 0.3%. Wells to which no cells were added served as the “blank.” Wells to which no inhibitor was added served as “no inhibitor control.” The plates were returned to the incubator, and at set time points (determined by their growth curves) plates were analyzed as described below.
3-(4,5-dimethylthiazole-2-yl)-2,5-diphenyl-2H-tetrazolium bromide (thiazolyl blue; MTT; Sigma) was added to each well to yield a final concentration of 1 mg/ml. Plates were returned to the incubator for 2.5-3 hours at 37° C. […] Absorbance readings were taken in a microtiter plate reader (Dynatech and Molecular Devices plate readers were used interchangeably) at a wavelength of 570 nm with a 650 nm reference. Percent inhibition (% INH) is calculated by subtracting the absorbance of the blank well from all wells, then subtracting the ratio of the average absorbance of each test duplicate (SAVE) by the average of the controls (CAVE) from 1.00. […]

The next experiment has as its target T3, human cyclin B-CDK1 (Homo sapiens, UniProt P06493).
T3 construct: made in house; host or cells: High Five insect cells (baculovirus)
In words: CDK1 HTRF kinase assay (Ki measurement). Format: biochemical. Particulars: Rb substrate, ATP at 3x Km, Ki=IC50/(1+S/Km).
Source text: Using recombinant human cyclin B-CDK1, human cyclin E-CDK2 or human cyclin D1-CDK4 complexes. GST-cyclinE (GST-cycE), CDK2, GST-cyclinB (GST-cycB), CDK1, GST-CDK4 and cyclin D1 (cycD1) cDNA clones in baculovirus vectors were provided by Dr. W. Harper at the Baylor College of Medicine, Houston, Tex. Proteins were co-expressed in High Five™ insect cells and the complex was purified on glutathione Sepharose resin (Pharmacia, Piscataway, N.J.) as previously described (Harper, J. W. et al. Cell 1993, 75, 805-816). […]
as §2, §3
In the CDK4 assay, test compounds were diluted to 3× their final concentrations in 25 mM Hepes, pH 7.0, 6.25 mM MgCl2, 1.5 mM DTT, 135 μM ATP. […] The plates were read using either ViewLux or Victor V readers (PerkinElmer Life Sciences) using an excitation wavelength of 340 nm and dual emission wavelengths of 615 nm and 665 nm. […]

Molecules are shown by their SMILES. Read-outs that look alike come from different tables or passages of the source.

These results are taken from patent publication US7423051B2, “2,6-diaminopyridine derivatives” (Hoffmann-La Roche Inc., priority 2004, dated 2008).

T1 sequence (P11802 whole entry): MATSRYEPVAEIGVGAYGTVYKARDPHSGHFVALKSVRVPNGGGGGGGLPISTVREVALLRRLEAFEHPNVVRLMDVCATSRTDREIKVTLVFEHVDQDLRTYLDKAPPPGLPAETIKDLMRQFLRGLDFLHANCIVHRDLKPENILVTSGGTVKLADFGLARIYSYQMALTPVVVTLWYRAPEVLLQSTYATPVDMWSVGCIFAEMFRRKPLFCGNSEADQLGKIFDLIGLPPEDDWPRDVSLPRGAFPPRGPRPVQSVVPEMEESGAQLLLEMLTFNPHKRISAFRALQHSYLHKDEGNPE
T1 sequence (P24385 whole entry partner): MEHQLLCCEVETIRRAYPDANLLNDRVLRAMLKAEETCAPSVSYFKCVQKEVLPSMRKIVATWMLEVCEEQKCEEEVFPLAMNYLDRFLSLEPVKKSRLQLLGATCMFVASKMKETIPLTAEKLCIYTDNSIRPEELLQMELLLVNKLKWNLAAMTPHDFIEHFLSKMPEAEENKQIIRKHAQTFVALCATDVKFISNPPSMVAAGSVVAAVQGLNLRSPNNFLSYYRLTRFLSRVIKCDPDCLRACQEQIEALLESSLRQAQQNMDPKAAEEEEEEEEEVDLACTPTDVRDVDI
T3 sequence (P06493 whole entry): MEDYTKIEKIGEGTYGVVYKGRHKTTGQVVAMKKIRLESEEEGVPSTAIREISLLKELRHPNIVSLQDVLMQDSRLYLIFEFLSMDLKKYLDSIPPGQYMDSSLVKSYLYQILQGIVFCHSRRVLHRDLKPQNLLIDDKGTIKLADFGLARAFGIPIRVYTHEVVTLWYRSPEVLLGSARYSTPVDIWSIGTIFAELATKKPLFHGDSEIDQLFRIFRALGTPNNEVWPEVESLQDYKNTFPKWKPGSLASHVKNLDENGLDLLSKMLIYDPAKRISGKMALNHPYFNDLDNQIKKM
T3 sequence (P14635 whole entry partner): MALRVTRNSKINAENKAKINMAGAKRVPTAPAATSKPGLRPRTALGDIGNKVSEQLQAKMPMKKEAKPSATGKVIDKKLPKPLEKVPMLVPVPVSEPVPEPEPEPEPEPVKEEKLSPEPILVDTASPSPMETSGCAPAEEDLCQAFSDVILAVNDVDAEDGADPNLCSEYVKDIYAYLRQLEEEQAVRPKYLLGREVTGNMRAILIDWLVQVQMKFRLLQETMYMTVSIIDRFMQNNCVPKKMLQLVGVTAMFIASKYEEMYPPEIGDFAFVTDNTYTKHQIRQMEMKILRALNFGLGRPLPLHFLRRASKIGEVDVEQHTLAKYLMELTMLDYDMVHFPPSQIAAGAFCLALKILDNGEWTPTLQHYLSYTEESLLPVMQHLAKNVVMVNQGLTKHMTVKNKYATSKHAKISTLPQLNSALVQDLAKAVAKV

In general, Ki refers to the dissociation constant of the complex between target and ligand, obtained from inhibition or displacement. The IC50 is the concentration that gives 50% inhibition. As to `COc1cc(Cl)c(F)cc1C(=O)c1ccc(NC2CCN(S(C)(=O)=O)CC2)nc1N` [Example 49, [2-Amino-6-(1-methanesulfonyl-piperidin-4-ylamino)-pyridin-3-yl]-(4-chloro-5-fluoro-2-methoxy-phenyl)-methanone], the Ki on human cyclin D1-CDK4 amounted to 8 nM; on human cyclin E-CDK2 (read-out: Ki for cdk2) it was 39 nM; at human cyclin B-CDK1 it was 154 nM. In addition, the half-inhibitory concentration (IC50) with HCT116 cell line turned out to be 3000 nM.
As for `COc1ccc(F)c(F)c1C(=O)c1ccc(NC2CCN(S(C)(=O)=O)CC2)nc1N` [Example 40, [2-Amino-6-(1-methanesulfonyl-piperidin-4-ylamino)-pyridin-3-yl]-(2,3-difluoro-6-methoxy-phenyl)-methanone], the Ki on human cyclin D1-CDK4 was found to be 17 nM; on human cyclin E-CDK2 (read-out: Ki for cdk2 (unit inferred)), 54 nM; on human cyclin B-CDK1, 60 nM. The compound also had an IC50 with HCT116 cell line of 2600 nM.
Take `COc1ccc(F)cc1C(=O)c1ccc(NC2CCN(S(C)(=O)=O)CC2)nc1N` [Example 23, [2-Amino-6-(1-methanesulfonyl-piperidin-4-ylamino)-pyridin-3-yl]-(5-fluoro-2-methoxy-phenyl)-methanone]: the inhibition constant (Ki) on human cyclin D1-CDK4 came to 40 nM; at human cyclin E-CDK2 (read-out: Ki for cdk2), 98 nM. Further, the 50% inhibitory concentration (IC50) in the experiment on HCT116 cell line was found to be 9000 nM.
